Several values for one entry are separate records, joined by “and”; a condition that tells them apart may be missing. Equal entries are not always repeated. Inconclusive results and toxic doses are left out. Cut-off read from the data, not from the text of the source: active = T/C of 150% or more; inactive = T/C below 125%.
Test system: L1210 leukemia ip in BDF1 mice, survival T/C
Assay: NCI In Vivo Anticancer Drug Screen. Data for tumor model L1210 Leukemia (intraperitoneal) in B6D2F1 (BDF1) mice
Details: endpoint: mean survival time, higher = longer survival
How it was run: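 Transplantable tumor model; survival measured in treated vs vehicle control mice. Value = treated/control.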

[1] = dose: 100.0 mg/kg/injection, schedule: Q01DX001 (ip), vehicle: saline
[2] = dose: 200.0 mg/kg/injection, schedule: Q01DX001 (ip), vehicle: saline
[3] = dose: 400.0 mg/kg/injection, schedule: Q01DX001 (ip), vehicle: saline
[4] = dose: 100.0 mg/kg/injection, schedule: Q01DX009 (ip), vehicle: saline with Tween-80
[5] = dose: 200.0 mg/kg/injection, schedule: Q01DX009 (ip), vehicle: saline with Tween-80
[6] = dose: 100.0 mg/kg/injection, schedule: Q01DX001 (ip), vehicle: carboxymethylcellulose (CMC)
[7] = dose: 200.0 mg/kg/injection, schedule: Q01DX001 (ip), vehicle: carboxymethylcellulose (CMC)
[8] = dose: 400.0 mg/kg/injection, schedule: Q01DX001 (ip), vehicle: carboxymethylcellulose (CMC)
[9] = dose: 50.0 mg/kg/injection, schedule: Q01DX005 (ip), vehicle: water
[10] = dose: 100.0 mg/kg/injection, schedule: Q01DX005 (ip), vehicle: water
[11] = dose: 200.0 mg/kg/injection, schedule: Q01DX005 (ip), vehicle: water
[12] = dose: 400.0 mg/kg/injection, schedule: Q01DX005 (ip), vehicle: water
[13] = dose: 100.0 mg/kg/injection, schedule: Q04DX002 (ip), vehicle: Klucel (hydroxypropylcellulose) (HPC)
[14] = dose: 200.0 mg/kg/injection, schedule: Q04DX002 (ip), vehicle: Klucel (hydroxypropylcellulose) (HPC)
[15] = dose: 400.0 mg/kg/injection, schedule: Q04DX002 (ip), vehicle: Klucel (hydroxypropylcellulose) (HPC)
[16] = dose: 100.0 mg/kg/injection, schedule: Q04DX003 (ip), vehicle: saline
[17] = dose: 200.0 mg/kg/injection, schedule: Q04DX003 (ip), vehicle: saline
[18] = dose: 400.0 mg/kg/injection, schedule: Q04DX003 (ip), vehicle: saline

Measured: T/C

Cc1ccc(NCC(O)CN2CCCC2)cc1 (configuration not stated)
inactive: dose: 6.0 mg/kg/injection, schedule: Q01DX009 (ip), vehicle: Klucel (hydroxypropylcellulose) (HPC) 94 % of control | dose: 12.0 mg/kg/injection, schedule: Q01DX009 (ip), vehicle: Klucel (hydroxypropylcellulose) (HPC) 92 % of control | dose: 12.5 mg/kg/injection, schedule: Q01DX001 (ip), vehicle: Klucel (hydroxypropylcellulose) (HPC) 93 % of control | dose: 12.5 mg/kg/injection, schedule: Q04DX003 (ip), vehicle: Klucel (hydroxypropylcellulose) (HPC) 104 % of control | dose: 25.0 mg/kg/injection, schedule: Q01DX001 (ip), vehicle: Klucel (hydroxypropylcellulose) (HPC) 93 % of control | dose: 25.0 mg/kg/injection, schedule: Q01DX009 (ip), vehicle: Klucel (hydroxypropylcellulose) (HPC) 96 % of control and 100 % of control | dose: 25.0 mg/kg/injection, schedule: Q04DX003 (ip), vehicle: Klucel (hydroxypropylcellulose) (HPC) 96 % of control | dose: 50.0 mg/kg/injection, schedule: Q01DX001 (ip), vehicle: Klucel (hydroxypropylcellulose) (HPC) 93 % of control

CCCCNC(=O)N(CC)C(=NCC)c1ccc(NC(=O)c2ccc(C(=O)Nc3ccc(C(=NCC)N(CC)C(=O)NCCCC)cc3)cc2)cc1
inactive: dose: 3.12 mg/kg/injection, schedule: Q01DX015 (ip), vehicle: methylcellulose (MC) 109 % of control | dose: 6.25 mg/kg/injection, schedule: Q01DX015 (ip), vehicle: methylcellulose (MC) 121 % of control | dose: 25.0 mg/kg/injection, schedule: Q01DX015 (ip), vehicle: methylcellulose (MC) 120 % of control
active: dose: 12.5 mg/kg/injection, schedule: Q01DX015 (ip), vehicle: methylcellulose (MC) 178 % of control

COc1cc(C2=C3C(=O)OCC3Cc3ccccc32)ccc1OCc1ccccc1 (configuration not stated)
inactive: [1] 97 % of control | [2] 95 % of control | [3] 98 % of control

CC(=O)CC(C)=NCC(C)N=C(C)CC(C)=O (configuration not stated)
inactive: [4] 89 % of control | dose: 100.0 mg/kg/injection, schedule: Q04DX003 (ip), vehicle: saline with Tween-80 100 % of control | [5] 98 % of control | dose: 200.0 mg/kg/injection, schedule: Q04DX003 (ip), vehicle: saline with Tween-80 101 % of control | dose: 400.0 mg/kg/injection, schedule: Q04DX003 (ip), vehicle: saline with Tween-80 93 % of control

O=C1CCCC(=O)c2ccccc21
inactive: [6] 98 % of control | [7] 93 % of control | [8] 102 % of control

O=c1[nH]cc(COCC(F)(F)C(F)(F)C(F)(F)F)c(=O)[nH]1
inactive: [9] 104 % of control | [10] 93 % of control | [11] 95 % of control | [12] 87 % of control

O=c1nc2c(ncn2C2OC(CO)C(O)C2O)c(NCCc2ccccc2)[nH]1 (configuration not stated)
inactive: [9] 100 % of control | [10] 94 % of control | [11] 105 % of control | [12] 113 % of control

CC(C)CCCC(C)C1CCC2C3CC(O)C4=CCCCC4(C)C3CCC12C (configuration not stated)
inactive: dose: 9.38 mg/kg/injection, schedule: Q01DX001 (ip), vehicle: other 97 % of control | dose: 18.75 mg/kg/injection, schedule: Q01DX001 (ip), vehicle: other 94 % of control | dose: 37.5 mg/kg/injection, schedule: Q01DX001 (ip), vehicle: other 94 % of control

c1ccc(C2=C([P+](c3ccccc3)(c3ccccc3)c3ccccc3)CCO2)cc1
inactive: dose: 3.0 mg/kg/injection, schedule: Q04DX003 (ip), vehicle: saline 102 % of control | dose: 3.12 mg/kg/injection, schedule: Q01DX009 (ip), vehicle: saline 117 % of control | dose: 6.0 mg/kg/injection, schedule: Q01DX001 (ip), vehicle: saline 108 % of control | dose: 6.0 mg/kg/injection, schedule: Q04DX003 (ip), vehicle: saline 117 % of control | dose: 6.25 mg/kg/injection, schedule: Q01DX009 (ip), vehicle: saline 109 % of control | dose: 12.0 mg/kg/injection, schedule: Q01DX001 (ip), vehicle: saline 108 % of control | dose: 12.0 mg/kg/injection, schedule: Q04DX003 (ip), vehicle: saline 101 % of control and 107 % of control | dose: 12.5 mg/kg/injection, schedule: Q01DX009 (ip), vehicle: saline 92 % of control | dose: 25.0 mg/kg/injection, schedule: Q01DX001 (ip), vehicle: saline 102 % of control

O=C(Oc1ccc(S(=O)(=O)F)cc1Cl)c1ccc([N+](=O)[O-])cc1
inactive: [13] 118 % of control | [14] 96 % of control | [15] 96 % of control

CC(SC1=NCCN1)C(=O)O (configuration not stated)
inactive: [1] 98 % of control | [2] 94 % of control | [3] 98 % of control

C/C(=C/c1c(C)[nH]c(=O)[nH]c1=O)C(=O)O
inactive: dose: 100.0 mg/kg/injection, schedule: Q01DX009 (ip), vehicle: saline 92 % of control | [16] 98 % of control | dose: 200.0 mg/kg/injection, schedule: Q01DX009 (ip), vehicle: saline 95 % of control | [17] 104 % of control | [18] 106 % of control

CC1(C)CCCC(Br)C1=O (configuration not stated)
inactive: dose: 50.0 mg/kg/injection, schedule: Q01DX009 (ip), vehicle: Klucel (hydroxypropylcellulose) (HPC) 97 % of control | dose: 100.0 mg/kg/injection, schedule: Q01DX009 (ip), vehicle: Klucel (hydroxypropylcellulose) (HPC) 104 % of control

F[Si](F)(c1ccccc1)c1ccccc1
inactive: dose: 75.0 mg/kg/injection, schedule: Q01DX001 (ip), vehicle: saline 105 % of control | dose: 150.0 mg/kg/injection, schedule: Q01DX001 (ip), vehicle: saline 100 % of control

CN(C(=O)OCc1ccccc1)C(Cc1ccccc1)C(=O)O (configuration not stated)
inactive: dose: 100.0 mg/kg/injection, schedule: Q01DX001 (ip), vehicle: other 95 % of control | dose: 200.0 mg/kg/injection, schedule: Q01DX001 (ip), vehicle: other 96 % of control

Cc1ccc(B(O)O)cc1
inactive: dose: 50.0 mg/kg/injection, schedule: Q04DX002 (ip), vehicle: alcohol 107 % of control | dose: 100.0 mg/kg/injection, schedule: Q04DX002 (ip), vehicle: alcohol 101 % of control | dose: 200.0 mg/kg/injection, schedule: Q04DX002 (ip), vehicle: alcohol 101 % of control

CC(C)C1(Br)C(=O)NC(=O)NC1=O
inactive: dose: 6.25 mg/kg/injection, schedule: Q01DX009 (ip), vehicle: Klucel (hydroxypropylcellulose) (HPC) 103 % of control | dose: 12.5 mg/kg/injection, schedule: Q01DX009 (ip), vehicle: Klucel (hydroxypropylcellulose) (HPC) 108 % of control

CCCN(CCC)C(=O)CCl
inactive: [1] 109 % of control | [2] 95 % of control

O=C1OCC/C1=C\OCCCO/C=C1\CCOC1=O
inactive: [13] 100 % of control | [14] 87 % of control | [15] 97 % of control

CCCCNC(=O)Oc1cccc(NC(=O)OC)c1
inactive: [4] 96 % of control | [5] 92 % of control | dose: 400.0 mg/kg/injection, schedule: Q01DX009 (ip), vehicle: saline with Tween-80 105 % of control

O=C(OC1COC(n2c(=O)oc3cc(Br)c(Cl)cc32)C(OC(=O)c2ccccc2)C1OC(=O)c1ccccc1)c1ccccc1 (configuration not stated)
inactive: [6] 96 % of control | [7] 96 % of control | [8] 89 % of control

CC1CCC2C(=CC(=O)CC2(C)C)C1 (configuration not stated)
inactive: [1] 109 % of control | [16] 108 % of control | [2] 101 % of control | [17] 104 % of control | [3] 96 % of control | [18] 103 % of control

CN(C)C=Nc1ccc(C#N)cc1
inactive: dose: 100.0 mg/kg/injection, schedule: Q04DX002 (ip), vehicle: saline 98 % of control | dose: 200.0 mg/kg/injection, schedule: Q04DX002 (ip), vehicle: saline 91 % of control | dose: 400.0 mg/kg/injection, schedule: Q04DX002 (ip), vehicle: saline 91 % of control

CC1CC(=O)c2c(cc3c(-c4c(O)cc(O)c5c(O)c6c(cc45)OC(C)CC6=O)c(O)cc(O)c3c2O)O1 (configuration not stated)
inactive: dose: 100.0 mg/kg/injection, schedule: Q04DX003 (ip), vehicle: carboxymethylcellulose (CMC) 103 % of control | dose: 200.0 mg/kg/injection, schedule: Q04DX003 (ip), vehicle: carboxymethylcellulose (CMC) 92 % of control

From PubChem BioAssay AID248 (DTP/NCI, 2004)
